Measurements from PubChem BioAssay (NCI).
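Assay format: 96-well plates, 48-hour exposure. TGI: total growth inhibition.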

Columns and labels:
Assay in all cases: growth of human tumour cells (NCI), 48 h
A498 renal = system: A498 renal
NCI-H522 lung = system: NCI-H522 lung
SK-MEL-2 melanoma = system: SK-MEL-2 melanoma
786-0 renal = system: 786-0 renal
LOX IMVI melanoma = system: LOX IMVI melanoma
T-47D breast = system: T-47D breast
U251 CNS = system: U251 CNS
SF-295 CNS = system: SF-295 CNS
OVCAR-4 ovarian = system: OVCAR-4 ovarian
TK-10 renal = system: TK-10 renal
CCRF-CEM leukemia = system: CCRF-CEM leukemia
COLO 205 colon = system: COLO 205 colon
MOLT-4 leukemia = system: MOLT-4 leukemia
IGROV1 ovarian = system: IGROV1 ovarian
EKVX NSCLC = system: EKVX NSCLC
UACC-257 melanoma = system: UACC-257 melanoma
SNB-19 CNS = system: SNB-19 CNS
NCI-H460 lung = system: NCI-H460 lung
OVCAR-3 ovarian = system: OVCAR-3 ovarian
SK-OV-3 ovarian = system: SK-OV-3 ovarian

| Structure (SMILES) | TGI (A498 renal) | TGI (NCI-H522 lung) | TGI (SK-MEL-2 melanoma) | TGI (786-0 renal) | TGI (LOX IMVI melanoma) | TGI (T-47D breast) | TGI (U251 CNS) | TGI (SF-295 CNS) | TGI (OVCAR-4 ovarian) | TGI (TK-10 renal) | TGI (CCRF-CEM leukemia) | TGI (COLO 205 colon) | TGI (MOLT-4 leukemia) | TGI (IGROV1 ovarian) | TGI (EKVX NSCLC) | TGI (UACC-257 melanoma) | TGI (SNB-19 CNS) | TGI (NCI-H460 lung) | TGI (OVCAR-3 ovarian) | TGI (SK-OV-3 ovarian) |
| --- | --- | --- | --- | --- | --- | --- | --- | --- | --- | --- | --- | --- | --- | --- | --- | --- | --- | --- | --- | --- |
| O=C(CCc1cccc(O)c1)NCCc1ccc(O)cc1 | > 100 µM | > 100 µM | > 100 µM | > 100 µM | > 100 µM | > 100 µM | > 100 µM | > 100 µM | > 100 µM | > 100 µM | > 100 µM | > 100 µM | > 100 µM | > 100 µM | > 100 µM | > 100 µM | > 100 µM | > 100 µM | > 100 µM | > 100 µM |
| CN(C)c1nc(-c2ccccc2)c(C(=O)c2c[nH]c3ccccc23)s1 | > 100 µM | 10.4 µM | > 100 µM | > 47.6 µM | > 100 µM | > 100 µM | > 100 µM | > 100 µM | > 100 µM | > 76.3 µM | > 60.5 µM | > 100 µM | > 82.6 µM | > 44.7 µM | > 100 µM | > 100 µM | > 100 µM | > 79.2 µM | > 94.4 µM | > 100 µM |
| CCCCn1c2c(n(CCCC)c1=S)-c1c(n(CCCC)c(=S)n1CCCC)SSSS2 | > 100 µM | 0.274 µM | 6.8 µM | 19.4 µM | 12.1 µM | 1.82 µM | 12.9 µM | > 100 µM | 9.6 µM | 22.9 µM | > 100 µM | 1.68 µM | > 36.2 µM | 4.2 µM | 23.2 µM | 9.13 µM | > 100 µM | > 93.6 µM | 2.65 µM | > 100 µM |
| O=C1C=C(NCCc2cc(Br)c(O)c(Br)c2)C(=O)c2ncccc21 | 6.78 µM | 6.1 µM | 4.1 µM | 13.6 µM | 4.97 µM | 43.4 µM | 20 µM | 2.79 µM | 11.3 µM | 13.8 µM | 31.4 µM | 3.25 µM | 21.9 µM | 6.31 µM | 22 µM | 2.92 µM | 8.77 µM | 4.8 µM | 6.88 µM | 33.4 µM |
